Laboratory results as given in ChEMBL document CHEMBL1201862, “PubChem BioAssay data set” (2004).
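Each compound was tested at five concentrations against cells in 96-well plates for 48 hours. Abbreviation: GI50, concentration required for 50% inhibition of growth.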 The source made the active and inactive calls. No stated cut-off is given here; in the data, active = GI50 up to about 1.1 µM and inactive = higher.

Columns and labels:
Assay in all cases: DTP human tumour cell line panel, 48 h
RXF 393 = tested on: RXF 393
NCI/ADR-RES = tested on: NCI/ADR-RES
PC-3 = tested on: PC-3
BT-549 = tested on: BT-549
U-251 = tested on: U-251
MDA-MB-435 = tested on: MDA-MB-435
SNB-75 = tested on: SNB-75
OVCAR-8 = tested on: OVCAR-8
OVCAR-5 = tested on: OVCAR-5
A549 = tested on: A549
HCC 2998 = tested on: HCC 2998
EKVX = tested on: EKVX
HOP-62 = tested on: HOP-62
MDA-N = tested on: MDA-N
T47D = tested on: T47D
SF-539 = tested on: SF-539
RPMI-8226 = tested on: RPMI-8226
MOLT-4 = tested on: MOLT-4
K562 = tested on: K562

SMILES | GI50 (RXF 393) | GI50 (NCI/ADR-RES) | GI50 (PC-3) | GI50 (BT-549) | GI50 (U-251) | GI50 (MDA-MB-435) | GI50 (SNB-75) | GI50 (OVCAR-8) | GI50 (OVCAR-5) | GI50 (A549) | GI50 (HCC 2998) | GI50 (EKVX) | GI50 (HOP-62) | GI50 (MDA-N) | GI50 (T47D) | GI50 (SF-539) | GI50 (RPMI-8226) | GI50 (MOLT-4) | GI50 (K562)
CC(=O)n1c(COS(C)(=O)=O)nc2ccccc21 | > 100 µM (inactive) | > 100 µM (inactive) | > 100 µM (inactive) | > 100 µM (inactive) | > 100 µM (inactive) | > 100 µM (inactive) | > 100 µM (inactive) | > 100 µM (inactive) | > 100 µM (inactive) | > 100 µM (inactive) | > 100 µM (inactive) | > 100 µM (inactive) | 50.2 µM (inactive) | > 100 µM (inactive) | > 100 µM (inactive) | > 100 µM (inactive) | – | – | –
C=C(CN(C)C)C(=O)c1ccc(OC2OC(COC(C)=O)C(OC(C)=O)C(OC(C)=O)C2OC(C)=O)cc1 (stereo not drawn) | 1.76 µM (inactive) | – | 15.3 µM (inactive) | 2.61 µM (inactive) | 15.8 µM (inactive) | 6.18 µM (inactive) | 11.4 µM (inactive) | 4.21 µM (inactive) | 16.5 µM (inactive) | 21.2 µM (inactive) | 18.1 µM (inactive) | 11.8 µM (inactive) | 15.3 µM (inactive) | 3.03 µM (inactive) | 2.9 µM (inactive) | 10.1 µM (inactive) | 2.88 µM (inactive) | 0.54 µM (active) | 0.533 µM (active)
NC(CSC1(c2ccc(Cl)cc2)c2ccccc2-c2ccccc21)C(=O)O (stereo not drawn) | 31.6 µM (inactive) | 39.1 µM (inactive) | 18.3 µM (inactive) | 18.2 µM (inactive) | 15.8 µM (inactive) | 14.4 µM (inactive) | 22.2 µM (inactive) | 17.7 µM (inactive) | 30.3 µM (inactive) | 31.3 µM (inactive) | – | 67.1 µM (inactive) | 18.7 µM (inactive) | > 100 µM (inactive) | 29 µM (inactive) | 20.9 µM (inactive) | 12.3 µM (inactive) | 20 µM (inactive) | 26.2 µM (inactive)
O=C1/C(=C/c2ccc(Cl)cc2)CSc2ccccc21 | 18.2 µM (inactive) | 16.6 µM (inactive) | 14.1 µM (inactive) | 27 µM (inactive) | 5.87 µM (inactive) | 4.86 µM (inactive) | 31.9 µM (inactive) | 20.5 µM (inactive) | – | 45.5 µM (inactive) | – | – | 20.5 µM (inactive) | 5.78 µM (inactive) | 28 µM (inactive) | 17.8 µM (inactive) | 2.31 µM (inactive) | 5.55 µM (inactive) | 3.37 µM (inactive)
Cc1nnc2n(c1=O)CCN2C | > 100 µM (inactive) | – | > 100 µM (inactive) | > 100 µM (inactive) | > 100 µM (inactive) | > 100 µM (inactive) | 89.7 µM (inactive) | > 100 µM (inactive) | > 100 µM (inactive) | > 100 µM (inactive) | > 100 µM (inactive) | > 100 µM (inactive) | > 100 µM (inactive) | > 100 µM (inactive) | > 100 µM (inactive) | > 100 µM (inactive) | > 100 µM (inactive) | > 100 µM (inactive) | > 100 µM (inactive)
O=[N+]([O-])c1cn[n+]([O-])c2ccccc12 | – | 5.14 µM (inactive) | 8.28 µM (inactive) | 5.22 µM (inactive) | 4.19 µM (inactive) | 13.8 µM (inactive) | – | 2.18 µM (inactive) | 12.4 µM (inactive) | 12 µM (inactive) | 1.7 µM (inactive) | 12.9 µM (inactive) | 12.9 µM (inactive) | 13.6 µM (inactive) | 3.7 µM (inactive) | 10.4 µM (inactive) | 2.03 µM (inactive) | 1.71 µM (inactive) | –
Cc1cc(C)c2nc3c(c(C(O)C4CCCCN4)c2c1)CC/C3=C\c1ccc(Cl)cc1 (stereo not drawn) | 27.7 µM (inactive) | 52.1 µM (inactive) | 54.1 µM (inactive) | > 100 µM (inactive) | 60.4 µM (inactive) | 55.1 µM (inactive) | 54 µM (inactive) | 58.6 µM (inactive) | 41.1 µM (inactive) | 76 µM (inactive) | – | 43.2 µM (inactive) | 75.9 µM (inactive) | 50.4 µM (inactive) | 30.3 µM (inactive) | > 100 µM (inactive) | 40.7 µM (inactive) | 26.7 µM (inactive) | 38 µM (inactive)
N=C(N)N/N=C/c1nc2sccn2c1[N+](=O)[O-] | 8.77 µM (inactive) | > 100 µM (inactive) | 35.2 µM (inactive) | 39.9 µM (inactive) | 28.6 µM (inactive) | 19.8 µM (inactive) | 11.3 µM (inactive) | 34 µM (inactive) | > 100 µM (inactive) | 35.4 µM (inactive) | – | 34.2 µM (inactive) | 37.8 µM (inactive) | 19.6 µM (inactive) | 18.2 µM (inactive) | 36.8 µM (inactive) | 82.4 µM (inactive) | – | 18.7 µM (inactive)
CN(C(=O)Cc1ccc(Cl)c(Cl)c1)[C@H]1CCCC[C@@H]1[N+]1(C)CCCC1 | – | > 100 µM (inactive) | > 100 µM (inactive) | > 100 µM (inactive) | > 100 µM (inactive) | > 100 µM (inactive) | – | > 100 µM (inactive) | > 100 µM (inactive) | > 100 µM (inactive) | – | > 100 µM (inactive) | > 100 µM (inactive) | > 100 µM (inactive) | > 100 µM (inactive) | > 100 µM (inactive) | > 100 µM (inactive) | > 100 µM (inactive) | > 100 µM (inactive)
N/C(=N\c1ccc(Cl)cc1)NS(=O)(=O)c1cc(Cl)c(Oc2ccc([N+](=O)[O-])cc2Cl)c(Cl)c1 | 15.2 µM (inactive) | 17.2 µM (inactive) | 16.2 µM (inactive) | 17.4 µM (inactive) | 14.8 µM (inactive) | 18.4 µM (inactive) | 17.1 µM (inactive) | 16.6 µM (inactive) | 19.7 µM (inactive) | 17.2 µM (inactive) | – | 16.9 µM (inactive) | – | 18.2 µM (inactive) | 14.8 µM (inactive) | 16.6 µM (inactive) | – | 14.8 µM (inactive) | 18.7 µM (inactive)
CC(=O)n1[nH]c(=O)n(-c2ccc(Cl)cc2)c1=O | > 100 µM (inactive) | > 100 µM (inactive) | > 100 µM (inactive) | > 100 µM (inactive) | > 100 µM (inactive) | > 100 µM (inactive) | – | > 100 µM (inactive) | > 100 µM (inactive) | > 100 µM (inactive) | > 100 µM (inactive) | > 100 µM (inactive) | > 100 µM (inactive) | > 100 µM (inactive) | > 100 µM (inactive) | – | > 100 µM (inactive) | > 100 µM (inactive) | > 100 µM (inactive)
CCC1OC2C(CC=C(C)C)=C3OC(C)(O)C(C)(CC)C(OC(=O)c4ccccc4)C3=C3OC(=O)C=C1C32 (stereo not drawn) | – | 36.3 µM (inactive) | 40.1 µM (inactive) | 19.1 µM (inactive) | 67.9 µM (inactive) | 36.1 µM (inactive) | 42.4 µM (inactive) | 39.2 µM (inactive) | 54.1 µM (inactive) | 41.4 µM (inactive) | 21.8 µM (inactive) | 31.6 µM (inactive) | 76.2 µM (inactive) | 20.5 µM (inactive) | 29 µM (inactive) | 25.2 µM (inactive) | 24.7 µM (inactive) | 23.1 µM (inactive) | 39 µM (inactive)
CCC1(c2ccc(N3C(=O)c4cc(OC)c(OC)cc4C3=O)cc2)CCC(=O)NC1=O (stereo not drawn) | > 10 µM (inactive) | > 10 µM (inactive) | > 10 µM (inactive) | > 10 µM (inactive) | > 10 µM (inactive) | > 10 µM (inactive) | – | > 10 µM (inactive) | > 10 µM (inactive) | > 10 µM (inactive) | > 10 µM (inactive) | > 10 µM (inactive) | > 10 µM (inactive) | > 10 µM (inactive) | > 10 µM (inactive) | > 10 µM (inactive) | > 10 µM (inactive) | > 10 µM (inactive) | > 10 µM (inactive)
CCOP1(=O)OCC2OC(n3cnc4c(N)ncnc43)C(O)C2O1.c1ccccc1 (stereo not drawn) | > 100 µM (inactive) | > 100 µM (inactive) | > 100 µM (inactive) | > 100 µM (inactive) | > 100 µM (inactive) | > 100 µM (inactive) | > 100 µM (inactive) | > 100 µM (inactive) | > 100 µM (inactive) | > 100 µM (inactive) | – | > 100 µM (inactive) | > 100 µM (inactive) | > 100 µM (inactive) | > 100 µM (inactive) | > 100 µM (inactive) | > 100 µM (inactive) | > 100 µM (inactive) | > 100 µM (inactive)
CCOc1ccc(/N=N/C2C(=O)N(C(=O)CC(=O)Nc3ccc(C)cc3)N=C2C)cc1 (stereo not drawn) | – | 24.4 µM (inactive) | > 100 µM (inactive) | 23.6 µM (inactive) | 15.1 µM (inactive) | 2.94 µM (inactive) | 8.02 µM (inactive) | 16.6 µM (inactive) | > 100 µM (inactive) | 34.7 µM (inactive) | 19 µM (inactive) | 6.68 µM (inactive) | 16 µM (inactive) | 2.7 µM (inactive) | 37.8 µM (inactive) | 14.8 µM (inactive) | – | 14.7 µM (inactive) | –
O=C1/C(=C\c2cccc(Oc3ccccc3)c2)SC(c2ccccc2)N1c1ccccc1 (stereo not drawn) | 69.5 µM (inactive) | 75.3 µM (inactive) | – | > 100 µM (inactive) | 25.1 µM (inactive) | 33.7 µM (inactive) | – | 42.2 µM (inactive) | > 100 µM (inactive) | > 100 µM (inactive) | > 100 µM (inactive) | 57 µM (inactive) | > 100 µM (inactive) | 30.1 µM (inactive) | 52.5 µM (inactive) | 26.5 µM (inactive) | 14.8 µM (inactive) | 23.2 µM (inactive) | 23.3 µM (inactive)
